Experimental data published in US10881677B2, “Composition for modulating IRAK1” (Agency for Science, Technology and Research, priority 2015, dated 2021).
Entries after “also recorded” stand apart in the source; their conditions may differ. One block for each compound: values may come before it.

Experiments:
[1] = system: SUM159-PR and MDA231-PR cells; assay: Apoptosis by FACS analysis of Sub-G1 cells; format: cell-based; conditions: for sensitization of Paclitaxel for apoptosis: Paclitaxel-resistant cells (SUM159-PR, MDA231-PR), inhibitor together with Paclitaxel
Protocol: Cell cycle analysis was done by DNA content quantification to quantify the sub-G1 population which is reflective of the extent of cell death. Briefly, the cells were fixed with 70% ethanol and stained with propidium iodide (50 μg/ml) staining. The stained cells were analyzed by FACScalibur (BD Bioscience) and quantified by using CellQuest software (BD bioscience).

IRAK1 = IRAK1 (Homo sapiens, UniProt P51617); conditions: cited from earlier work; for ability to inhibit IRAK1: recently reported (ref 38), in vitro and in vivo
p-IRAK1 (T209) = biological target: T1, p-IRAK1 (T209) (Homo sapiens, UniProt P51617); assay: Western blot of p-IRAK1 in immunoprecipitated IRAK1; format: cell-based; conditions: for induction of p-IRAK1 by chemotherapeutic agent: MDA231 (also SUM159) cells, PTX 5 nM, ADR 2 μM, Cisplatin 5 μM, up to 48 hours; for IRAK1 signaling activated by chemotherapeutic agents: discussion statement
T1 construct: The whole cell lysate were extracted with the NE-PER kit (Pierce Biotechnology) and subjected to immunoprecipitation using 2 μg total-IRAK1 antibody; endogenous in cells; host or cells: TNBC cell lines (BT549, MB436, MB468, MDA231, MDA231-LM2, SUM159 and paclitaxel-resistant sublines)
Protocol: (§1) Western Blotting was performed as described previously (8). IRAK1 (Cat no: #4359), IRAK4 (Cat no.: 4363), cleaved PARP (Cat no.: #9541), p38 MAPK (Cat no.: #9212), phospho-p38 MAPK (T180/Y182) (Cat no.: #9211), phospho-NF-KappaB p65 (S536) (Cat no. #3031) were purchased from Cell Signaling (Danvers, Mass.). Phospho-IRAK1 (T209) antibody was purchased from Assay Biotech (Sunnyvale, Calif., Cat no.: A1074) and phospho-IRAK1 (S376) antibody from Genetex (Irvine, Calif., Cat no.: GTX50994). MCL-1 antibody was purchased from Santa Cruz Biotechnology (Santa Cruz, Calif., Cat no.: sc-819). Actin was purchased from Sigma-Aldrich (St Louis, Mo., Cat no.: A5441). Detection of bands was performed with the ChemiDoc™ MP Imaging Systems (Bio-Rad, Hercules, Calif.) and bands were subjected to further densitometric analysis with Image Lab software (Version 4.1, Bio-rad, Hercules, Calif.).
Co-IP was performed as described previously (9). The whole cell lysate were extracted with the NE-PER kit (Pierce Biotechnology) and subjected to immunoprecipitation using 2 μg total-IRAK1 antibody (Santa Cruz Biotech, Santa Cruz, Calif., Cat no.: sc-7883). The precipitated protein complex was captured using protein A-Agarose beads (Roche) and extensively washed with the washing buffer (50 mM Tris-HCl, 150 mM NaCl, 0.1% triton). The precipitated proteins were dissolved in SDS sample buffer along with 3 mM DTT, and subjected to immunoblotting analysis. Phospho-IRAK1 (T209) (Assay Biotechnology, Sunnyvale, Calif., Cat no.: A1074) was used for detection.

[2] = system: BT549, MB436, MB468, MDA231 and MDA231-LM2 cells; assay: Mammosphere formation assay; format: cell-based; conditions: Ginsenosides CK and Rb1
Protocol: Active growing cells were treated with 0.05% trypsin for 10 minutes then passed through […] cell strainer to achieve single cell suspension. Cells were plated (MDA231: 1×10^4; MB436: 3×10^4; MB468: 4×10^4 cells/well, BT549: 3×10^4, MDA231-LM2: 3×10^4) seeded in 6-well ultra-low attachment plates (Corning, Corning, N.Y., cat: CLS3471) in Mammocult medium (Stem cell Technologies, Vancouver, BC, Canada), supplemented with fresh hydrocortisone (0.51 μg/ml) and heparin (1:500). Tumorspheres were cultured for 7 days prior to being counted and photographed. Imaging and quantification were done using GelCount™ apparatus and associated software (Oxford Optronix, Abingdon, UK). For serial passages of tumorsphere formation assay, the spheres were collected by gentle centrifugation, dissociated to single cells for passaging tumorspheres every 14 days and counted. Tumorspheres were photographed and quantified 7-12 days later using a GelCount Colony Counter after staining with INT.

[3] = system: MDA231 and SUM159 parental and Paclitaxel-resistant sublines (PR); assay: Cell viability of parental and Paclitaxel-resistant sublines, combination treatment; format: cell-based; conditions: MDA231-PR cells, in combination with PTX
Protocol: (§2) For cell proliferation assay, the optimal cell seeding was first determined empirically for all cell lines by examining the growth of a wide range of seeding densities in a 96-well format to identify conditions that permitted proliferation for 7 days. Cells were then plated at the optimal seeding density 24 h before siRNA or drug treatment in triplicate. Plates were incubated for 7 days at 37° C. in 5% CO2. Cells were then lysed with CellTiter-Glo (CTG) (Promega, Madison, Wis.) and chemiluminescent signal was detected with a microplate reader on Day 0, 1, 3, 5 and 7. In addition, an untreated plate of cells was harvested at the time of drug or siRNA addition (T0) to quantify the starting number of cells. CTG values obtained after the 7 day treatment were expressed as percentages of the T0 value and plotted against time of treatment.

MDA231-PR cells = assay: Cell viability IC50 curves, sensitivity of paclitaxel-resistant cells to agents; format: cell-based; conditions: for sensitivity of paclitaxel-resistant cells to agent: paclitaxel-treated/resistant cells over-expressing p-IRAK1; for shift of the IC50 curve: MDA231-PR versus parental MDA-MB-231
Description: (§3) FIG. 17. (a). IC50 curves showing cell viability after treatment with paclitaxel (PTX), vincristine (VCR), gemcitabine, doxorubicin (ADR), cisplatin, 5-fluorouracil (5-FU) and pacritinib in parental and pacitaxel-treated MDA-MB-231 (MDA231-PR) cells. (b). Graphical representation of relative sensitivities. (c).
as §2

[4] = system: parental MDA-MB-231 cells; assay: Cell viability IC50 curves, sensitivity of parental cells to agents; format: cell-based; conditions: parental MDA231
Description: as §3, §2

[5] = system: p38-MCL-1 signaling in SUM159-PR cells; assay: Western blot of p-p38, MCL-1 and cleaved PARP; format: cell-based; conditions: inhibitor with Paclitaxel
Protocol: as §1

Chain of IRAK1 (P51617 whole entry, species assumed): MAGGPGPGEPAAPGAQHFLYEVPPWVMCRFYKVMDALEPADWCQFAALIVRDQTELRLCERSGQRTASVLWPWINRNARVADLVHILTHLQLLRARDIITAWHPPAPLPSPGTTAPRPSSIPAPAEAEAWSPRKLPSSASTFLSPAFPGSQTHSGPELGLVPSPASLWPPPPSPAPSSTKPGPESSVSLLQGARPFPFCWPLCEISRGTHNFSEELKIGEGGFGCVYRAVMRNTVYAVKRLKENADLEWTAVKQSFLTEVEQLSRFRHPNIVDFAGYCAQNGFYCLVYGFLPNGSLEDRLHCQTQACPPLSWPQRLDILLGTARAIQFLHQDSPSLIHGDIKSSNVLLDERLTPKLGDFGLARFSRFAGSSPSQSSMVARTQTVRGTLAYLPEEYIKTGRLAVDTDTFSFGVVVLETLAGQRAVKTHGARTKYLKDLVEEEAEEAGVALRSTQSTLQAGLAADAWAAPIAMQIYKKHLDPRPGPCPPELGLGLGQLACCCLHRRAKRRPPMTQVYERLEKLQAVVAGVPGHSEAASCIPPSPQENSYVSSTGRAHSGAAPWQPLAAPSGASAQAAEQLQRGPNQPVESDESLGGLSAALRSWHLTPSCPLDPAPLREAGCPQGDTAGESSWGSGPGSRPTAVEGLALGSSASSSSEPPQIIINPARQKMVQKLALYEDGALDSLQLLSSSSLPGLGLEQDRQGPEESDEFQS
T1 sequence (P51617 whole entry): as the sequence (P51617 whole entry, species assumed) above

Compound: O=C(Nc1cc(Cl)cc2c1[nH]c1cnccc12)c1cccnc1 [PS1145]
sensitization of Paclitaxel for apoptosis [1]: failed to sensitize

Compound: CC(C)=CCC[C@](C)(O[C@@H]1O[C@H](CO[C@@H]2O[C@H](CO)[C@@H](O)[C@H](O)[C@H]2O)[C@@H](O)[C@H](O)[C@H]1O)[C@H]1CC[C@]2(C)[C@@H]1[C@H](O)C[C@@H]1[C@@]3(C)CC[C@H](O[C@@H]4O[C@H](CO)[C@@H](O)[C@H](O)[C@H]4O[C@@H]4O[C@H](CO)[C@@H](O)[C@H](O)[C@H]4O)C(C)(C)[C@@H]3CC[C@]12C [Rb1, Ginsenoside Rb1]
ability to inhibit IRAK1 (IRAK1): ability to inhibit IRAK1

Compound: Cc1ccc(S(=O)(=O)/C=C/C#N)cc1 [Bay 117082, BAY-11-7082]
sensitization of Paclitaxel for apoptosis [1]: failed to sensitize

p-IRAK1 in MDA231-LM2 cells (p-IRAK1 (T209); CK 25 μM): inhibit p-IRAK1
Compound: CC(C)=CCC[C@](C)(O[C@@H]1O[C@H](CO)[C@@H](O)[C@H](O)[C@H]1O)[C@H]1CC[C@]2(C)[C@@H]1[C@H](O)C[C@@H]1[C@@]3(C)CC[C@H](O)C(C)(C)[C@@H]3CC[C@]12C [CK, Compound K]
MDA231-LM2 mammosphere growth [2]: abolish; also recorded: inhibit TNBC metastatic growth
ability to inhibit IRAK1 (IRAK1): ability to inhibit IRAK1
effect on Paclitaxel resistance (cell viability and apoptosis) [3]: combat Paclitaxel resistance; also recorded: combat chemoresistance

Compound: O=c1[nH]cc(F)c(=O)[nH]1 [5-fluorouracil]
sensitivity of paclitaxel-resistant cells to agent (MDA231-PR cells): poor
response of parental cells to agent [4]: poor

induction of p-IRAK1 by chemotherapeutic agent (p-IRAK1 (T209)): not seen
IRAK1 signaling activated by chemotherapeutic agents (p-IRAK1 (T209)): activated
Compound: COc1cccc2c1C(=O)c1c(O)c3c(c(O)c1C2=O)C[C@@](O)(C(=O)CO)C[C@@H]3O[C@H]1C[C@H](N)[C@H](O)[C@H](C)O1 [doxorubicin, Doxorubicin]
shift of the IC50 curve (MDA231-PR cells): marked right shift

Compound: C[C@@H]1CN(Cc2ccc(F)cc2)[C@@H](C)CN1C(=O)c1cc2c(C(=O)C(=O)N(C)C)cn(C)c2cc1Cl [p38 inhibitor, SCIO 469]
PARP cleavage [5]: increased PARP cleavage
p-p38 and MCL-1 expression [5]: decrease
sensitization of Paclitaxel for apoptosis [1]: able to phenocopy IRAK-inh to sensitize Paclitaxel-induced apoptosis

Compound: NS(=O)(=O)c1nn2cc(-c3ccccc3)nc2s1 [JNK inhibitor, AEG 3482]
sensitization of Paclitaxel for apoptosis [1]: not evident

Compound: N.N.[Cl][Pt][Cl] [cisplatin]
induction of p-IRAK1 by chemotherapeutic agent (p-IRAK1 (T209)): not seen
sensitivity of paclitaxel-resistant cells to agent (MDA231-PR cells): remained sensitive; also recorded: remained susceptible

IRAK1 signaling activated by chemotherapeutic agents (p-IRAK1 (T209)): activated
Compound: CC[C@]1(O)C[C@H]2CN(CCc3c([nH]c4ccccc34)[C@@](C(=O)OC)(c3cc4c(cc3OC)N(C=O)[C@H]3[C@@](O)(C(=O)OC)[C@H](OC(C)=O)[C@]5(CC)C=CCN6CC[C@]43[C@@H]65)C2)C1 [Vincristine]
shift of the IC50 curve (MDA231-PR cells): marked right shift
sensitivity of paclitaxel-resistant cells to agent (MDA231-PR cells): resistant

Compound: C1=C/COCc2cc(ccc2OCCN2CCCC2)Nc2nccc(n2)-c2cccc(c2)COC/1 [pacritinib]
sensitivity of paclitaxel-resistant cells to agent (MDA231-PR cells): sensitive; also recorded: remained susceptible
IRAK1-inhibitory activity (IRAK1; through communication with CTI BioPharma): IRAK1-inhibitory activity
effect of treatment on paclitaxel-resistant MDA-MB-231 cells ([1]; compared with IRAK-inh): effects similar to those seen with IRAK-inh

Compound: Nc1ccn([C@@H]2O[C@H](CO)[C@@H](O)C2(F)F)c(=O)n1 [gemcitabine]
sensitivity of paclitaxel-resistant cells to agent (MDA231-PR cells): remained sensitive; also recorded: remained susceptible
